Test [1] deals with Kappa-type opioid receptor (Cavia porcellus, UniProt P41144). Briefly: Displacement of [3H]U69-593 from kappa opioid receptor in guinea pig brain membrane. Type of test: cell membranes.
For test [2], the target named is Delta-type opioid receptor (Mus musculus) (UniProt P32300). Briefly: Antagonist activity at delta opioid receptor in mouse vas deferens assessed as inhibition of DPDPE-stimulated muscle contraction. The format is functional, tissue-based.
The target of test [3] is Mu-type opioid receptor (Cavia porcellus, UniProt P97266). Kind of test: Agonist activity at mu opioid receptor in guinea pig ileum assessed as effect on muscle contraction. The format is functional, tissue-based.
Mu-type opioid receptor (Cavia porcellus, UniProt P97266), sequence (P97266 whole entry): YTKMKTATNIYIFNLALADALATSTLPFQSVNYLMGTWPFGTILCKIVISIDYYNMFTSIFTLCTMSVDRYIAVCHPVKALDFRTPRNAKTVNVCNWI
Test [4] has as its target Delta-type opioid receptor (Rattus norvegicus, UniProt P33533). Briefly: Displacement of [3H]DSLET from delta opioid receptor in rat brain membrane. The format is cell membranes. For orientation: Displacement assays read how much labelled ligand stays bound in the presence of the test substance.
Test [5] has as its target Mu-type opioid receptor (Rattus norvegicus, UniProt P33535). Briefly: Displacement of [3H]DAMGO from mu opioid receptor in rat brain membrane. Type of test: cell membranes.
Test [6] addresses Mu-type opioid receptor (Cavia porcellus) (UniProt P97266). Briefly: Antagonist activity at mu opioid receptor in guinea pig ileum assessed as inhibition of […]. Type of test: functional, tissue-based.

Here are results for eight compounds from ChEMBL document CHEMBL1154618, “Agonist vs antagonist behavior of delta opioid peptides containing novel phenylalanine analogues in place of Tyr(1)” (J Med Chem, 2009).

The source made the active and inactive calls. No cut-off for these calls is given here. Non-standard residues stand in square brackets, D forms with d. Residues, ends and D or L forms follow the SMILES beside them. Phe(2,6-Me2,4-CONH2) = Cc1cc(C(N)=O)cc(C)c1C[C@H](N)C(=O)O; Dmt = Cc1cc(O)cc(C)c1C[C@H](N)C(=O)O; Tic = O=C(O)[C@@H]1Cc2ccccc2CN1

One may read the Ki as a dissociation constant, usually derived from enzyme kinetics or from competition with a known ligand. Low values mean a stronger hold on the target, high ones a looser hold on the target. As a reminder, the IC50 is the concentration at which inhibition is half-maximal.

Kappa-type opioid receptor, sequence (P41144 whole entry): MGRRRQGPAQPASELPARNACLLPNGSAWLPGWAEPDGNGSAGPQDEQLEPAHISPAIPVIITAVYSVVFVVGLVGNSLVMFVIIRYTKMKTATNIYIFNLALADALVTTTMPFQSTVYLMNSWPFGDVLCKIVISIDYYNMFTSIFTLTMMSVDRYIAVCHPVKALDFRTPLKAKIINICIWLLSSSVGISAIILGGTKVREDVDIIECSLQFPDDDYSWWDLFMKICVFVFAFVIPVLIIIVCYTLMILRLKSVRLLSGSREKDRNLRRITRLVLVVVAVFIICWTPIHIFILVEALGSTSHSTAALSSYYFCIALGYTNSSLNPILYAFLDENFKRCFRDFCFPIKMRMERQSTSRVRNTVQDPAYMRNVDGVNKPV
Delta-type opioid receptor (Mus musculus), sequence (P32300 whole entry): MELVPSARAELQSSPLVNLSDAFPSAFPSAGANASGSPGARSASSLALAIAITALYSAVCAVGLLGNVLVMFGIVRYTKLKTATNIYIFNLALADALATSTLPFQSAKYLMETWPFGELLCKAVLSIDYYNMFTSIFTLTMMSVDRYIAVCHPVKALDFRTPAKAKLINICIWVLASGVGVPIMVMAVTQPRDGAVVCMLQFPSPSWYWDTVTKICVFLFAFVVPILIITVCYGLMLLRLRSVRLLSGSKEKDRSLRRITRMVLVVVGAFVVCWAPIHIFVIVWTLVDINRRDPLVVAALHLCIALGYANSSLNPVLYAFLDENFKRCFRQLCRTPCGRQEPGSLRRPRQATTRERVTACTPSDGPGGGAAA
Mu-type opioid receptor (Cavia porcellus), sequence (P97266 whole entry): as the sequence (P97266 whole entry) above
Delta-type opioid receptor, sequence (P33533 whole entry): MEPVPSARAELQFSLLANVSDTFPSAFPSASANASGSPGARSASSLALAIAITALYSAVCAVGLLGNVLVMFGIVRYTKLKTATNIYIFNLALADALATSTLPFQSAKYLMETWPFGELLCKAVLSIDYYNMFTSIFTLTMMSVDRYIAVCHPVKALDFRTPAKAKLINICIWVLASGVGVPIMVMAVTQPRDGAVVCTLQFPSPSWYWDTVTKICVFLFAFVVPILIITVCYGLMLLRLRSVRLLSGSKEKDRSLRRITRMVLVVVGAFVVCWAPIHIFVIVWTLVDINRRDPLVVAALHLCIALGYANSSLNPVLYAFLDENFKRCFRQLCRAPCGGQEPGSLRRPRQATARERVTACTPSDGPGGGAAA
Mu-type opioid receptor (Rattus norvegicus, UniProt P33535), sequence (P33535 whole entry): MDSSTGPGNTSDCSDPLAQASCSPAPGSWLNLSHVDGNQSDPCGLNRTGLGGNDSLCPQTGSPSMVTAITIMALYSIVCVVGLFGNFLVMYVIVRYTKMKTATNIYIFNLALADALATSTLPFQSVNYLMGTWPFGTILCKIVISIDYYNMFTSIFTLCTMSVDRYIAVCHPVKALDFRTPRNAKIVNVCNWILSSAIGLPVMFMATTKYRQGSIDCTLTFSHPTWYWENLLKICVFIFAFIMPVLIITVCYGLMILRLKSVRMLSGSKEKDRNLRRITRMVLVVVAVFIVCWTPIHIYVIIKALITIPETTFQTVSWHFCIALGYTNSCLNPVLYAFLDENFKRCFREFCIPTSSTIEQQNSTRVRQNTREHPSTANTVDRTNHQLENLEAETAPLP

In turn, `Cc1cc(O)cc(C)c1C[C@H](N)C(=O)N1Cc2ccccc2C[C@H]1C(=O)N[C@@H](Cc1ccccc1)C(=O)N[C@@H](Cc1ccccc1)C(=O)O` (H-[Dmt][Tic]FF-OH) displayed an inhibition constant (Ki) in test [1] greater than 1000 nM. Further, the Ke in test [2] was 0.196 nM. Besides, the half-maximal inhibitory concentration (IC50) on Mu-type opioid receptor [3] (read-out: IC50) is 769 nM.
As for `N[C@@H](Cc1ccc(C(=O)NCCc2ccc(-c3ccccc3)cc2)cc1)C(=O)N1Cc2ccccc2C[C@H]1C(=O)O`, in test [2], the Ke was 17.8 nM.
In test [1], `N[C@@H](Cc1ccc(O)cc1)C(=O)N1Cc2ccccc2C[C@H]1C(=O)N[C@@H](Cc1ccccc1)C(=O)N[C@@H](Cc1ccccc1)C(=O)O` (H-Y[Tic]FF-OH) came in with an inhibition constant (Ki) greater than 1000 nM. For the same compound, at Mu-type opioid receptor [3] (read-out: IC50), the IC50 was greater than 10000 nM.
With `Cc1cc(C(N)=O)cc(C)c1C[C@H](N)C(=O)N1Cc2ccccc2C[C@H]1C(=O)N[C@@H](Cc1ccccc1)C(=O)N[C@@H](Cc1ccccc1)C(=O)O` (H-[Phe(2,6-Me2,4-CONH2)][Tic]FF-OH), the values for the Ki in test [4] and in test [1] were 0.501 nM and greater than 1000 nM, respectively. In test [2], the Ke was determined as 0.627 nM.
As for `N[C@@H](Cc1ccc(O)cc1)C(=O)N1Cc2ccccc2C[C@H]1C(=O)O` (H-Tyr-[Tic]-OH), the values for the Ki (in test [4]; in test [1]; at Mu-type opioid receptor [5]) were 242 nM, greater than 10000 nM and greater than 1000 nM, respectively. Besides, the Ke result in test [6] is “inactive”. The Ke in test [2] turned out to be 263 nM. In addition, the IC50 entry at Mu-type opioid receptor [3] was “Not Active”.
In the case of `Cc1cc(C(=O)NCCc2ccc(-c3ccccc3)cc2)cc(C)c1C[C@H](N)C(=O)N1Cc2ccccc2C[C@H]1C(=O)O`, the Ke in test [2] was determined as 1.76 nM.
Still for that read-out and setting: the same measure for `N[C@@H](Cc1ccc(C(=O)NCCc2ccc(-c3ccccc3)cc2)cc1)C(=O)N1Cc2ccccc2C[C@H]1C(=O)N[C@@H](Cc1ccccc1)C(=O)O`: 18.7 nM.
Take `Cc1cc(O)cc(C)c1C[C@H](N)C(=O)N1Cc2ccccc2C[C@H]1C(=O)O` (H-[Dmt]-[Tic]-OH): the inhibition constant (Ki) in test [1] was greater than 1000 nM; at Mu-type opioid receptor [5], 1360 nM. Besides, the Ke entry in test [6] was “inactive”. Moreover, the IC50 result on Mu-type opioid receptor [3] is on record as “Not Active”.
